These results are taken from patent US6498156B2, “Diphenylazetidinone derivatives, process for their preparation, medicaments comprising these compounds and their use” (Aventis Pharma Deutschland GmbH, priority 2000, dated 2002).

Data set [1] is described as follows: Bioabsorption in the Caco cell model. In kind it is in vitro ADME. To be noted: human, Caco-2; Caco cell model; read-out: Apparent partition coefficient Papp (according to Lit. Hilgers). From the text:
(§1) The bioabsorption of the compounds of the formula I was examined using the Caco cell model (A. R. Hilgers et al., Caco-2 cell monolayers as a model for drug transport across the intestinal mucosa, Pharm. Res. 1990, 7, 902).
(§2) From the measured data, it can be seen that the bioabsorption of the compounds of the formula I according to the invention is considerably lower than that of compounds described in the prior art (reference structure): […]

Data set [2] concerns Caco-2 cell monolayers. As to the kind of experiment: Bioabsorption in the Caco cell model. In kind it is in vitro ADME. The note with it: estimated from Caco cell model data.
Description: as §1, §2

For data set [3], the system named is Cholesterol absorption (uptake of 14C-cholesterol by the liver). Briefly: Cholesterol absorption test: uptake of 14C-cholesterol by the liver after peroral test meal. In kind it is in vivo, NMRI mice. The note with it: dose at which the uptake of 14C-cholesterol by the liver is halved (50%) vs control group, mouse. From the text:
Effect on Cholesterol Absorption +^3H-taurocholic Acid Excretion Using Fecal Excrement of Mice, Rats or Hamsters
NMRI mice, Wistar rats, or Golden Syrian hamsters (in groups of n=4-6) are kept in metabolic cages, where they are fed with a standard diet (Altromin, Lage (Lippe)). The afternoon prior to the administration of the radioactive tracers (^14C-cholesterol), the feed is removed and the animals are adapted to grates.
Additionally, the animals are labeled s.c. with ^3H-TCA (taurocholic acid) (for example 1 μCi/mouse up to 5 μCi/rat) 24 hours prior to the peroral administration of the test meal (^14C-cholesterol in Intralipid® 20, Pharmacia-Upjohn).
Cholesterol absorption test: 0.25 ml/mouse Intralipid ® 20 (Pharmacia-Upjohn) ((Spiked with 0.25 μCi of ^14C-cholesterol in 0.1 mg of cholesterol) are administered perorally by gavage.
Test substances were prepared separately in 0.5% methylcellulose (Sigma)/5% Solutol (BASF, Ludwigshafen) or a suitable vehicle.
The administration volume of the test substance is 0.5 ml/mouse. The test substance is administered immediately prior to the test meal (Intralipid labeled with ^14C-cholesterol) (cholesterol absorption test).
The feces are collected over a period of 24 h: fecal elimination of ^14C-cholesterol and ^3H-taurocholic acid (TCA) is determined after 24 hours.
The livers are removed and homogenized, and aliquots are incinerated in an oximate (Model 307, Packard) to determine the amount of ^14C-cholesterol which had been taken up/absorbed.
The amount of ^14C-cholesterol taken up by the liver is based on the administered dose. The ED50 values are interpolated from a dose-effect curve as the dose at of which the uptake of ^14C-cholesterol by the liver is halved (50%), based on a control group.

Molecules are shown by their SMILES. Bounds are passed on as bounds.

As for `CCCCC1(CC)CS(=O)(=O)c2ccc(N(C)C)cc2C(c2cccc(NC(=O)CCCCCCCCCCC(=O)NCc3cccc(C4C(CCC(O)c5ccc(F)cc5)C(=O)N4c4ccc(F)cc4)c3)c2)[C@H]1O.O=C(O)C(F)(F)F` (stereo in doubt) [Example XII, (3-Butyl-3-ethyl-5-{3-[11-(3-{1-(4-fluorophenyl)-3-[3-(4-fluorophenyl)-3-hydroxypropyl]-4-oxoazetidin-2-yl}benzylcarbamoyl)undecanoylamino]phenyl}-4-hydroxy-1,1-dioxo-2,3,4,5-tetrahydro-1H-benzo[b]thiepin-7-yl)dimethylammonium Trifluoro-acetate], the Papp in data set [1] was determined as 0.00367 ×10⁻⁶ cm/s. For the same compound, the Estimated human bioabsorption in data set [2] is on record as under 1%.

Compound `CCCCC1(CC)CS(=O)(=O)c2ccc(N(C)C)cc2C(c2cccc(NC(=O)CCCCC(=O)NCc3ccc(C4C(CCC(O)c5ccccc5)C(=O)N4c4ccc(F)cc4)cc3)c2)C1O` (stereo not drawn) [II, N-[3-(3-Butyl-7-dimethylamino-3-ethyl-4-hydroxy-1,1-dioxo-2,3,4,5-tetrahydro-1H-benzo[b]thiepin-5-yl)phenyl]-N′-4-[1-(4-fluorophenyl)-3-(3-hydroxy-3-phenylpropyl)-4-oxoazetidin-2-yl]benzyl-hexanediamide] returned a melting point of 150 °C. The “ED50 (liver)” value in data set [3] came out at 0.01 mg/mouse.

`CCCCC1(CC)CS(=O)(=O)c2ccc(N(C)C)cc2C(c2cccc(NC(=O)CCCCC(=O)NCc3ccc(C4C(CCC(O)c5ccc(F)cc5)C(=O)N4c4ccc(F)cc4)cc3)c2)C1O` (stereo not drawn) [III, N-[3-(3-Butyl-7-dimethylamino-3-ethyl-4-hydroxy-1,1-dioxo-2,3,4,5-tetrahydro-1H-benzo[b]thiepin-5-yl)phenyl]-N′-4-{1-(4-fluorophenyl)-3-[3-(4-fluorophenyl)-3-hydroxypropyl]-4-oxo-azetidin-2-yl}benzyl-hexanediamide]: in data set [3], the “ED50 (liver)” value is reported as 0.03 mg/mouse.

On to `O=C1[C@H](CC[C@H](O)c2ccc(F)cc2)[C@@H](c2ccc(O)cc2)N1c1ccc(F)cc1` [Reference structure, Ezetimibe, reference compound], for which the Papp in data set [1] worked out at 4.88 ×10⁻⁶ cm/s. Also, the Estimated human bioabsorption in data set [2] is reported as 100%.

Take `CCCCC1(CC)CS(=O)(=O)c2ccc(N(C)C)cc2C(c2cccc(NC(=O)COCCOCCOCC(=O)NCc3ccc(C4C(CCC(O)c5ccccc5)C(=O)N4c4ccc(F)cc4)cc3)c2)C1O` (stereo not drawn) [VI, [2-(2-{[3-(3-Butyl-7-dimethylamino-3-ethyl-4-hydroxy-1,1-dioxo-2,3,4,5-tetrahydro-1H-benzo[b]thiepin-5-yl)-phenylcarbamoyl]methoxy}ethoxy)ethoxy]-[N-{4-[1-(4-fluorophenyl)-3-(3-hydroxy-3-phenylpropyl)-4-oxoazetidin-2-yl]benzyl}]acetamide]: the melting point worked out at 120 °C.

Consider `CCCCC1(CC)CS(=O)(=O)c2ccc(N(C)C)cc2C(c2cccc(NC(=O)COCCOCC(=O)NCc3cccc(C4C(CCC(O)c5ccc(F)cc5)C(=O)N4c4ccc(F)cc4)c3)c2)C1O.O=C(O)C(F)(F)F` (stereo not drawn) [VIII, (3-Butyl-3-ethyl-5-[3-(2-{2-[(3-{1-(4-fluorophenyl)-3-[3-(4-fluorophenyl)-3-hydroxypropyl]-4-oxoazetidin-2-yl}benzylcarbamoyl)methoxy]ethoxy}acetylamino)phenyl]-4-hydroxy-1,1-dioxo-2,3,4,5-tetrahydro-1H-benzo[b]thiepin-7-yl)dimethylammonium Trifluoroacetate], for which the “ED50 (liver)” value in data set [3] is 0.003 mg/mouse.

Consider `CCCCC1(CC)CS(=O)(=O)c2ccc(N(C)C)cc2C(c2cccc(NC(=O)CCCCCCCNCc3ccc(C4C(CCC(O)c5ccc(F)cc5)C(=O)N4c4ccc(F)cc4)cc3)c2)C1O.O=C(O)C(F)(F)F` (stereo not drawn) [XXV], for which the “ED50 (liver)” value in data set [3] was found to be 0.01 mg/mouse.

The compound `CCCCC1(CC)CS(=O)(=O)c2ccc(N(C)C)cc2C(c2cccc(NC(=O)COCCOCC(=O)NCc3ccc(N4C(=O)C(CCC(O)c5ccc(F)cc5)C4c4ccc(OC)cc4)cc3)c2)C1O` (stereo not drawn) [XXX, 2-(2-{[3-(3-Butyl-7-dimethylamino-3-ethyl-4-hydroxy-1,1-dioxo-2,3,4,5-tetrahydro-1H-benzo[b]thiepin-5-yl)phenylcarbamoyl]methoxy}ethoxy)-N-{4-[3-[3-(4-fluorophenyl)-3-hydroxypropyl]-2-(4-methoxyphenyl)-4-oxoazetidin-1-yl]benzyl}acetamide] showed a melting point of 116 to 125 °C.

As for `CCCCC1(CC)CS(=O)(=O)c2ccc(N(C)C)cc2C(c2cccc(NC(=O)COCCOCCOCC(=O)NCc3ccc(N4C(=O)C(CCC(O)c5ccc(F)cc5)C4c4ccc(OC)cc4)cc3)c2)C1O` (stereo not drawn) [XXXI, N-[3-(3-Butyl-7-dimethylamino-3-ethyl-4-hydroxy-1,1-dioxo-2,3,4,5-tetrahydro-1H-benzo[b]thiepin-5-yl)phenyl]-2-{2-[2-({4-[3-[3-(4-fluorophenyl)-3-hydroxypropyl]-2-(4-methoxyphenyl)-4-oxoazetidin-1-yl]benzylcarbamoyl}methoxy)ethoxy]ethoxy}acetamide], in data set [3], the “ED50 (liver)” value is on record as 0.1 mg/mouse.

For orientation: Papp means the rate of passage across a membrane or cell layer, normalised by area and donor concentration. A word on the melting point: it is the temperature of the solid-liquid transition.
